Assay results taken from US11591341B2 (ALIGOS THERAPEUTICS, INC., priority 2019, dated 2023).

System: HBV
Experiment: HBV-DNA Antiviral Assay Using HepG2.117 Cells (intracellular HBV DNA by qPCR)
Type: cell-based, hepatitis B virus (genotype D)
Settings: Hepatitis B virus, HepG2.117
Summary of the method: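 Endpoint: qPCR copy number of intracellular HBV DNA after 3-day compound exposure, with inhibition set relative to the 2% DMSO control. The cells were doxycycline-free HepG2.117 carrying a Tet-off genotype D genome, dosed at nine 4-fold dilutions. A duplicate plate gave ATP-based viability (CC50).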

Structure (SMILES) | EC50 [nM]
CO[C@H]1CN(Cc2ccccc2)Cc2c3n(c(=O)n2C1)CCN(C(=O)c1ccc(Br)c(Cl)c1)C3 (stereo in doubt) [Example 310, rac-(11S)-13-benzyl-4-(4-bromo-3-chloro-benzoyl)-11-methoxy-4,7,9,13-tetrazatricyclo[7.5.0.0^2,7]tetradec-1-ene-8,14-dione] | 100 to 500
O=C(NCc1ccccc1)c1c2n(c(=O)n1-c1ccc(-n3cccn3)cc1)CCN(C(=O)c1ccc(Br)c(Cl)c1)C2 [Example 271, N-benzyl-7-(4-bromo-3-chloro-benzoyl)-3-oxo-2-(4-pyrazol-1-ylphenyl)-6,8-dihydro-5H-imidazo[1,5-a]pyrazine-1-carboxamide] | 100 to 500
C[C@@H](Oc1ccc(-n2c(C(=O)NCc3ccccc3)c3n(c2=O)CCN(C(=O)c2ccc(Br)c(Cl)c2)C3)cc1)C(F)(F)F (stereo in doubt) [Example 282, N-benzyl-7-(4-bromo-3-chloro-benozyl)-3-oxo-2-[4-[rac-(1R)-2,2,2-trifluoro-1-methyl-ethoxy]phenyl]-6,8-dihydro-5H-imidazo[1,5-a]pyrazine-1-carboxamide] | 500 to 5000
C[C@H](Oc1ccc(CNC(=O)c2c3n(c(=O)n2-c2ccc(OCC(F)(F)F)cc2)CCN(C(=O)c2ccc(Br)c(Cl)c2)C3)c(F)c1)C(N)=O (stereo in doubt) [Example 353, 7-(4-bromo-3-chloro-benzoyl)-N-[[2-fluoro-4-[rac-(1S)-2-amino-1-methyl-2-oxo-ethoxy]phenyl]methyl]-3-oxo-2-[4-(2,2,2-trifluoroethoxy)phenyl]-6,8-dihydro-5H-imidazo[1,5-a]pyrazine-1-carboxamide] | 500 to 5000
C[C@@H](NC(=O)c1c2n(c(=O)n1-c1ccc(OC3CC3)cc1)CCN(C(=O)c1ccc(Br)c(Cl)c1)C2)c1ccc(OC(F)F)cc1F (racemic) [Example 313, 7-(4-bromo-3-chloro-benzoyl)-2-[4-(cyclopropoxy)phenyl]-3-oxo-N-[rac-(1R)-1-[4-(difluoromethoxy)-2-fluoro-phenyl]ethyl]-6,8-dihydro-5H-imidazo[1,5-a]pyrazine-1-carboxamide] | 100 to 500
Cc1cc2occc2cc1CNC(=O)c1c2n(c(=O)n1-c1ccc(OCC(F)(F)F)cc1)CCN(C(=O)c1ccc(Br)c(Cl)c1)C2 [Example 295, 7-(4-bromo-3-chloro-benzoyl)-N-[(6-methylbenzofuran-5-yl)methyl]-3-oxo-2-[4-(2,2,2-trifluoroethoxy)phenyl]-6,8-dihydro-5H-imidazo[1,5-a]pyrazine-1-carboxamide] | 100 to 500
O=C(NCc1ccccc1-c1cccnn1)c1c2n(c(=O)n1-c1ccc(OC3CC3)cc1)CCN(C(=O)c1ccc(Br)c(Cl)c1)C2 [Example 387, 7-(4-bromo-3-chloro-benozyl)-2-[4-(cyclopropoxy)phenyl]-3-oxo-N-[(2-pyridazin-3-ylphenyl)methyl]-6,8-dihydro-5H-imidazo[1,5-a]pyrazine-1-carboxamide] | < 100
COc1cc(C#N)ccc1CNC(=O)c1c2n(c(=O)n1-c1ccc(OC(C)C)cc1)CCN(C(=O)c1ccc(Br)c(Cl)c1)C2 [Example 236, 7-(4-bromo-3-chloro-benzoyl)-N-[(4-cyano-2-methoxy-phenyl)methyl]-2-(4-isopropoxyphenyl)-3-oxo-6,8-dihydro-5H-imidazo[1,5-a]pyrazine-1-carboxamide] | 100 to 500
C[C@@H](c1ccccc1)N1C[C@@H](O)Cn2c(c3n(c2=O)CCN(C(=O)c2ccc(Br)c(Cl)c2)C3)C1=O (stereo in doubt) [Example 237, (11RS)-2-(4-bromo-3-chloro-benzoyl)-11-hydroxy-13-[(1S)-1-phenylethyl]-4,7,9,13-tetrazatricyclo[7.5.0.0^2,7]tetradec-1-ene-8,14-dione] | 500 to 5000
CC(C)(Oc1ccc(CNC(=O)c2c3n(c(=O)n2-c2ccc(OC4CC4)cc2)CCN(C(=O)c2ccc(Br)c(Cl)c2)C3)c(F)c1)C(N)=O [Example 365, N-[[4-(2-amino-1,1-dimethyl-2-oxo-ethoxy)-2-fluoro-phenyl]methyl]-7-(4-bromo-3-chloro-benzoyl)-2-[4-(cyclopropoxy)phenyl]-3-oxo-6,8-dihydro-5H-imidazo[1,5-a]pyrazine-1-carboxamide] | < 100
COc1ccc(-n2c(C(=O)NCc3ccccc3)c3n(c2=O)CCN(C(=O)c2ccc(Cl)c(Cl)c2)C3)cc1Cl [Example 50, N-benzyl-2-(3-chloro-4-methoxy-phenyl)-7-(3,4-dichlorobenzoyl)-3-oxo-6,8-dihydro-5H-imidazo[1,5-a]pyrazine-1-carboxamide] | > 5000
COc1ccc(-n2c(C(=O)NCc3ccccn3)c3n(c2=O)CCN(C(=O)c2ccc(Br)c(Cl)c2)C3)cc1 [Example 191, 7-(4-bromo-3-chloro-benzoyl)-2-(4-methoxyphenyl)-3-oxo-N-(2-pyridylmethyl)-6,8-dihydro-5H-imidazo[1,5-a]pyrazine-1-carboxamide] | 500 to 5000
Cn1cnc2c(CNC(=O)c3c4n(c(=O)n3-c3ccc(OCC(F)(F)F)cc3)CCN(C(=O)c3ccc(Br)c(Cl)c3)C4)cccc21 [Example 400, 7-(4-bromo-3-chloro-benzoyl)-N-[(1-methylbenzimidazol-4-yl)methyl]-3-oxo-2-[4-(2,2,2-trifluoroethoxy)phenyl]-6,8-dihydro-5H-imidazo[1,5-a]pyrazine-1-carboxamide] | 100 to 500
C[C@H](Oc1ccc([C@H](C)NC(=O)c2c3n(c(=O)n2-c2ccc(OC4CC4)cc2)CCN(C(=O)c2ccc(Br)c(Cl)c2)C3)c(F)c1)C(N)=O (stereo in doubt) [Example 358, 7-(4-bromo-3-chloro-benzoyl)-2-[4-(cyclopropoxy)phenyl]-3-oxo-N-[rac-(1S)-1-[2-fluoro-4-[rac-(1S)-2-amino-1-methyl-2-oxo-ethoxy]phenyl]ethyl]-6,8-dihydro-5H-imidazo[1,5-a]pyrazine-1-carboxamide] | < 100
O=C(NCc1ccccc1-c1ncc[nH]1)c1c2n(c(=O)n1-c1ccc(OCC(F)(F)F)cc1)CCN(C(=O)c1ccc(Br)c(Cl)c1)C2 [Example 425, 7-(4-bromo-3-chloro-benzoyl)-N-[[2-(1H-imidazol-2-yl)phenyl]methyl]-3-oxo-2-[4-(2,2,2-trifluoroethoxy)phenyl]-6,8-dihydro-5H-imidazo[1,5-a]pyrazine-1-carboxamide] | < 100
O=C(c1ccc(Br)c(Cl)c1)N1CCn2c(c3n(c2=O)C[C@H](CO)CN(Cc2ccccc2)C3=O)C1 (stereo in doubt) [Example 146, rac-(11R)-13-benzyl-4-(4-bromo-3-chloro-benzoyl)-11-(hydroxymethyl)-4,7,9,13-tetrazatricyclo[7.5.0.0^2,7]tetradec-1-ene-8,14-dione] | 100 to 500
CC(C)Oc1ccc(-n2c(C(=O)NCc3ccccc3)c3n(c2=O)CCN([C@H](c2ccc(Br)c(Cl)c2)C(F)(F)F)C3)cc1 (racemic) [Example 240, N-benzyl-2-(4-isopropoxyphenyl)-3-oxo-7-[rac-(1R)-1-(4-bromo-3-chloro-phenyl)-2,2,2-trifluoro-ethyl]-6,8-dihydro-5H-imidazo[1,5-a]pyrazine-1-carboxamide] | > 5000
COc1ccc(-n2c(C(=O)NCc3ccc(F)c(OC)c3)c3n(c2=O)CCN(C(=O)c2ccc(Cl)c(Cl)c2)C3)cc1 [Example 103, 7-(3,4-dichlorobenzoyl)-N-[(4-fluoro-3-methoxy-phenyl)methyl]-2-(4-methoxyphenyl)-3-oxo-6,8-dihydro-5H-imidazo[1,5-a]pyrazine-1-carboxamide] | 500 to 5000
Cc1ccn(-c2ccc(-n3c(C(=O)NCc4ccccc4)c4n(c3=O)CCN(C(=O)c3ccc(Br)c(Cl)c3)C4)cc2)n1 [Example 455, N-benzyl-7-(4-bromo-3-chloro-benzoyl)-2-[4-(3-methylpyrazol-1-yl)phenyl]-3-oxo-6,8-dihydro-5H-imidazo[1,5-a]pyrazine-1-carboxamide] | 100 to 500
O=C(NCc1ccccc1-n1cccn1)c1c2n(c(=O)n1-c1ccc(OC3CC3)cc1)CCN(C(=O)c1ccc(Br)c(Cl)c1)C2 [Example 457, 7-(4-bromo-3-chloro-benzoyl)-2-[4-(cyclopropoxy)phenyl]-3-oxo-N-[(2-pyrazol-1-ylphenyl)methyl]-6,8-dihydro-5H-imidazo[1,5-a]pyrazine-1-carboxamide] | < 100
COc1ccc(-n2c(C(=O)N[C@@H](C)c3ccccc3)c3n(c2=O)CCN(C(=O)c2ccc(Cl)c(Cl)c2)C3)cc1 (stereo in doubt) [Example 70, 7-(3,4-dichlorobenzoyl)-2-(4-methoxyphenyl)-3-oxo-N-[rac-(1S)-1-phenylethyl]-6,8-dihydro-5H-imidazo[1,5-a]pyrazine-1-carboxamide] | 500 to 5000
COc1ccc(-n2c(C(=O)NCc3ccc(CC(N)=O)cc3)c3n(c2=O)CCN(C(=O)c2ccc(Br)c(Cl)c2)C3)cc1 [Example 183, N-[[4-(2-amino-2-oxo-ethyl)phenyl]methyl]-7-(4-bromo-3-chloro-benzoyl)-2-(4-methoxyphenyl)-3-oxo-6,8-dihydro-5H-imidazo[1,5-a]pyrazine-1-carboxamide] | 500 to 5000
COc1ccc(-n2c(C(=O)N[C@@H](c3ccccc3)C3CC3)c3n(c2=O)CCN(C(=O)c2ccc(Br)c(Cl)c2)C3)cc1 (racemic) [Example 149, 7-(4-bromo-3-chloro-benzoyl)-2-(4-methoxyphenyl)-3-oxo-N-[rac-(R)-cyclopropyl(phenyl)methyl]-6,8-dihydro-5H-imidazo[1,5-a]pyrazine-1-carboxamide] | 500 to 5000
C[C@H](Oc1ccc(-n2c(C(=O)NCc3ccccc3)c3n(c2=O)CCN(C(=O)c2ccc(Br)c(Cl)c2)C3)cc1)C(F)(F)F (stereo in doubt) [Example 283, N-benzyl-7-(4-bromo-3-chloro-benozyl)-3-oxo-2-[4-[rac-(1S)-2,2,2-trifluoro-1-methyl-ethoxy]phenyl]-6,8-dihydro-5H-imidazo[1,5-a]pyrazine-1-carboxamide] | 500 to 5000
Cc1coc2ccc(-n3c(C(=O)NCc4ccccc4)c4n(c3=O)CCN(C(=O)c3ccc(Br)c(Cl)c3)C4)cc12 [Example 276] | 100 to 500
